Measurements from US9808448B2, “Pharmaceutical compounds and use of same in cancer and tauopathies” (THE REGENTS OF THE UNIVERSITY OF MICHIGAN, priority 2013, dated 2017).
“And” between values parts separate entries of the source, which are not always exact repeats. Equal values may be shown once. “Also recorded” adds a separate entry of the source.

Key:
[1] = Pharmacokinetics of YM-08 in plasma and brain, CD1 mice; type: in vivo, mouse
Procedure: The initial pharmacokinetics (PK) of YM-01 and YM-08 were tested in CD1 mice. […] After a single 6.6 mg/kg dose delivered i.v., the peak brain concentration of YM-08 was 4 μg/g (FIG. 7B) and the ratio in the brain:plasma (B/P) ratio was approximately 0.25 for 18 hrs (FIG. 7C). […] It is not yet clear how much tau levels need to be reduced to achieve therapeutic effects in disease models, but the area-under-the-curve (AUCinf) for YM-08 in the brain was 0.26 μg·hr/g and the AUCinf in plasma was 13.6 μg·hr/mL.
Female CD-1 mice (25-30 g in body weight) were purchased from Charles River Laboratories (Wilmington, Mass.). Mice were treated with 6 mg/kg YM-08 through the tail-vein injection. The plasma and brain were collected at 0.016, 0.08, 0.16, 0.25, 0.5, 1, 2, 4, 6, 13, 18, 24 and 48 h after drug administration. Whole blood samples were drawn through the cardiac puncture using a heparinized syringe with a 22 gauge needle, followed by centrifugation at 3,000 g for 10 min at 4° C. to obtain plasma. Collected tissues were washed with PBS, immediately frozen using liquid nitrogen, and stored at −80° C. until further analysis. Tissue homogenates were prepared by adding PBS (1:5 w/v, homogenate/PBS) and homogenization for 3 min. Compound was extracted from 100 μL of sample by adding 300 μL of acetonitrile containing 50 ng/mL IS, followed by vortexing for 3 min. The supernatant was collected and subjected to LC-MS/MS analysis.
The separation of YM-08 and internal standard was performed using Agilent 1200 HPLC system (Agilent Technologies, Santa Clara, Calif.) and Zobarx SB-C18 column (2.1×50 mm, 3.5 μm) (Agilent Technologies). […] The compounds were eluted with an fixed gradient of 20% solvent A and 80% of solvent B. Solvent A consisted of 0.1% (v/v) glacial acetic acid in water and solvent B consisted of 0.1% (v/v) glacial acetic acid in acetonitrile. After injecting 10 μl of samples into HPLC system, the elution was performed over 2 min at a flow rate of 0.4 ml/min. The YM-08 and MKT-077 eluents were detected using QTRAP 3200 mass spectrometer (Applied Biosystems/MDS Sciex, Foster City, Calif.) equipped with an electrospray ionization source (ESI). The temperature of ESI was set at 650° C. and curtain gas, gas 1, and gas 2 were set to 30, 50, and 50 units, respectively. A positive voltage at 5500 V was applied through ESI to convert the eluents to ions in the form of MH+. The ions were detected using a MRM mode. The ion transitions from the precursor ion (m/z 368) to the fragment ion (m/z=222) and from the precursor ion (m/z 396) to the fragment ion (m/z=175) were used to detect YM-08 and IS, respectively.

[2] = system: stress inducible Hsp72 (HSPA1); experiment: Stress response in treated HeLaC3 cell lysates; type: cell-based, human
human Hsc70NBD = biological target: T1, human Hsc70NBD (Homo sapiens, UniProt P11142); experiment: Biolayer interferometry (Octet Red), Hsc70NBD; type: binding; details: immobilized biotinylated Hsc70NBD
T1 construct: made in house
Procedure: Binding of MKT-077 analogs to immobilized Hsp70 was evaluated using a competitive ELISA. In this established assay, a biotinylated version of MKT-077 is bound to immobilized human Hsc70 (HSPA8) and potential competitors are tested for their ability to block the interaction. […] As further controls, the truncated compounds YM-02, YM-03, YM-04 and YM-07 were tested.
Biotinylated human Hsc70NBD or full length Hsp72 were first immobilized on super streptavidin biosensors (ForteBio, 18-5057) as follows: biosensors were soaked with MG buffer (100 mM Tris base, 20 mM KCl, 6 mM MgCl2, 0.01% Triton X-100, pH 7.4) for 10 min before moving them to wells either containing 200 μL […] biotinylated proteins or […] biocytin for 60 min. The free streptavidin sites were subsequently quenched with […] biocytin for 10 min. The biosensors were washed with MG buffer for 5 min prior to beginning the binding experiments. The association and disassociation steps were carried out in MG buffer with a constant 10% DMSO concentration. All steps were performed at room temperature and with 1000 rpm rotary shaking. […] The apparent affinities of YM-08 for Hsc70NBD and Hsp72 were calculated from both equilibrium measurements and global fits of the kon and koff values, yielding similar values.

[3] = system: total and phospho-tau in wild type brain slices; experiment: Tau levels in wild type brain slice cultures; type: cell-based, mouse
Procedure: YM-08 activity in a more physiological system was tested. Brain slice cultures from transgenic mice that express mutated tau were treated for 6 hours with YM-08 and the levels of total- and pS396/404 tau measured by Western blots. […] To test whether YM-08 might selectively reduce tau after microtubule disruption, brain slices were cultured from wild type mice and treated them with YM-08 plus the microtubule destabilizer, nocodazole. […] Together, these studies add to growing evidence that Hsp70 selectively identifies tau variants that are not associated with the normal microtubule network, likely minimizing their aggregation and proteotoxicity.

[4] = Liver microsome stability; type: in vitro ADME; details: human, liver microsomes
[5] = system: MCF-7, MCF-10A and MB-MDA-231 cells; experiment: MTT assays, three cell lines; type: cell-based; details: range over MCF-7, MCF-10A and MB-MDA-231 cells
Procedure: YM-08 was tested whether it might retain the anti-cancer activity of MKT-077.

T1 sequence (P11142 2-386 limits assumed): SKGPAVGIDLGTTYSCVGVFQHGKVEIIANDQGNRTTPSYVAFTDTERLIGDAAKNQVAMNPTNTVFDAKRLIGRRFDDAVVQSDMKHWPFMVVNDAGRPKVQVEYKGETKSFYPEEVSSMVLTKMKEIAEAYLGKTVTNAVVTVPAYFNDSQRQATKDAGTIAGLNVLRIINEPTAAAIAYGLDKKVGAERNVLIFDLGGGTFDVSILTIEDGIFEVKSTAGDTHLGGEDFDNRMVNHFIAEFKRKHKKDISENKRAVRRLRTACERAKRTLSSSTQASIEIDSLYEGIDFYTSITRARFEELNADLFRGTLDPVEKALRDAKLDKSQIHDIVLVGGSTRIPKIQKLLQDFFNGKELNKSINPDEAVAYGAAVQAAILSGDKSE

SMILES: CCn1c(=O)/c(=C2\Sc3ccccc3N2C)s/c1=C\c1ccccn1 [YM-08, (2Z,5E)-3-ethyl-5-(3-methylbenzo[d]thiazol-2(3H)-ylidene)-2-(pyridin-2-ylmethylene)thiazolidin-4-one]
- AUCinf in the brain ([1]; 6.6 mg/kg i.v.): 0.26 µg·h/g
- half-life ([1]; female, CD-1, mouse, brain, iv, 6.6 mg/kg i.v., read-out: terminal halftime in the brain (t1/2; brain) (converted)): 6.8 h
- Kp at 18 h ([1]; female, CD-1, mouse, brain/plasma, iv, 6.6 mg/kg, 6.6 mg/kg i.v., for 18 hrs, read-out: brain:plasma (B/P) ratio): ~0.25
- AUC(0-inf) ([1]; female, CD-1, mouse, plasma, iv, 6.6 mg/kg i.v., read-out: AUCinf in plasma): 13600 ng·h/mL
- half-life ([1]; female, CD-1, mouse, plasma, iv, 6.6 mg/kg i.v., read-out: t1/2, plasma (converted)): 9.8 h
- peak brain concentration ([1]; single 6.6 mg/kg i.v., Cremophor mixture): 4 µg/g
- stress response (Hsp72 levels) [2]: did not induce a stress response
- Kd (human Hsc70NBD): ~2.3 µM and ~4 µM
- tau levels, YM-08 alone [3]: unchanged; also recorded: did not significantly reduce tau levels
- total and phospho-tau levels, plus nocodazole ([3]; microtubule disruption): decreased levels of both total and phospho-tau
- half-life [4]: 2 to 4 min
- half-life ([4]; figure legend): ~4 min
- EC50 [5]: 7.8 to 10.5 µM
